Test results: PMC10700596 (Nature Communications, 2023)
Where “and” joins values, the source holds several entries; their conditions need not be identical. Equal entries are not always repeated. Entries after “also recorded” stand apart in the source; their conditions may differ.

How the values were obtained:
[1] = target: wild-type EP4R (Homo sapiens, UniProt P35408); experiment: cell-based
[2] = target: 320 GPCRs (Homo sapiens, UniProt O00254); format: cell-based
[3] = target: 320 GPCRs (Homo sapiens, UniProt O00421); format: cell-based
Sequence of 320 GPCRs (Homo sapiens, UniProt O00421) (O00421 whole entry): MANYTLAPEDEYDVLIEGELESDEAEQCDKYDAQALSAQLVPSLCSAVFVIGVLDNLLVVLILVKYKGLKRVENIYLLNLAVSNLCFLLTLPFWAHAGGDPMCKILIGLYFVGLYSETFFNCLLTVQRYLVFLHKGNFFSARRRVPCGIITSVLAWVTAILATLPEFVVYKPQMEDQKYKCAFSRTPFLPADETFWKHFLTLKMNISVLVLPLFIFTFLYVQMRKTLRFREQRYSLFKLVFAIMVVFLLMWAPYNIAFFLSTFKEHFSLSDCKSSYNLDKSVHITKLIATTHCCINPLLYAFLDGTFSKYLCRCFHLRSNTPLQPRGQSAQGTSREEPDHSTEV

[4] = target: 320 GPCRs (Homo sapiens, UniProt O14804); format: cell-based
[5] = target: 320 GPCRs (Homo sapiens, UniProt P14416); format: cell-based
[6] = target: 320 GPCRs (Homo sapiens, UniProt P21453); format: cell-based
Sequence of 320 GPCRs (Homo sapiens, UniProt P21453) (P21453 whole entry): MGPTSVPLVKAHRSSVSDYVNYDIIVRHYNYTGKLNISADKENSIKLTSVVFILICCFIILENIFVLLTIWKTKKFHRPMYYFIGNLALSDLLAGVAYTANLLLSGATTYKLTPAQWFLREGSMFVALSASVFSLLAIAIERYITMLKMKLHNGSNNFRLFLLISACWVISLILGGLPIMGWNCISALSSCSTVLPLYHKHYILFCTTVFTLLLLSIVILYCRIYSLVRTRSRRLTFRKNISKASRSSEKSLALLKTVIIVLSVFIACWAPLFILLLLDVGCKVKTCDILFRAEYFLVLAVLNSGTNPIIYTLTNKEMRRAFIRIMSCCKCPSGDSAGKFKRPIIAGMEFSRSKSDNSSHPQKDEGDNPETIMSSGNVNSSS

[7] = target: 320 GPCRs (Homo sapiens, UniProt P22888); format: cell-based
Sequence of 320 GPCRs (Homo sapiens, UniProt P22888) (P22888 27-699): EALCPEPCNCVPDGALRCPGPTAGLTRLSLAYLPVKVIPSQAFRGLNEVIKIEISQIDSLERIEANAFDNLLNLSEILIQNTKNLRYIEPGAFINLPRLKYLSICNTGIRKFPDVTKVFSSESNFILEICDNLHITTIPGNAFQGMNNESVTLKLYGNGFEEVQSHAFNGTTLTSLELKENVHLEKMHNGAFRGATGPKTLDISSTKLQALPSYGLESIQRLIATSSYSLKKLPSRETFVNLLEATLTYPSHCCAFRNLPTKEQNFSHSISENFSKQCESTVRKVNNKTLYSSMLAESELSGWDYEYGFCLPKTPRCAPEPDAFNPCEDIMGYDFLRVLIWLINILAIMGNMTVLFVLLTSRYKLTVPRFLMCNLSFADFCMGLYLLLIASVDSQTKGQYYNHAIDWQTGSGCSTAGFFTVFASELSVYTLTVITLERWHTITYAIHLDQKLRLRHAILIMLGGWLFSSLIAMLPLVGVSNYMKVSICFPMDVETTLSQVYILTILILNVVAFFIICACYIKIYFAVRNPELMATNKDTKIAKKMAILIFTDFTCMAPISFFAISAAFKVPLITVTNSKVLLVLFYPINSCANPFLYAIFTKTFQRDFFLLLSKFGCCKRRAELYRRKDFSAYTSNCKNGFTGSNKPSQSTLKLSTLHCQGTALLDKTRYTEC

[8] = target: 320 GPCRs (Homo sapiens, UniProt P23945); format: cell-based
[9] = target: 320 GPCRs (Homo sapiens, UniProt P24530); format: cell-based
[10] = target: 320 GPCRs (Homo sapiens, UniProt P25090); format: cell-based
Sequence of 320 GPCRs (Homo sapiens, UniProt P25090) (P25090 whole entry): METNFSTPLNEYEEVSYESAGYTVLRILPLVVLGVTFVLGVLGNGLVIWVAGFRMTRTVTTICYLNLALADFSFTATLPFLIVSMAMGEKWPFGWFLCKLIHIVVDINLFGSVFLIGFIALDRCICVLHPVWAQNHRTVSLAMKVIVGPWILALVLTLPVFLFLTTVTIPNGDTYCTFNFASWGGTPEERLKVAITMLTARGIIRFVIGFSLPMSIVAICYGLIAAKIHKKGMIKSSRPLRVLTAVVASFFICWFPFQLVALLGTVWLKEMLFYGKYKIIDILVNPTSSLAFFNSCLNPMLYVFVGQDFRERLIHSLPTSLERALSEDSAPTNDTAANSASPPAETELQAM

[11] = target: 320 GPCRs (Homo sapiens, UniProt P34972); format: cell-based
[12] = target: 320 GPCRs (Homo sapiens, UniProt P35410); format: cell-based
[13] = target: 320 GPCRs (Homo sapiens, UniProt P41146); format: cell-based
[14] = target: 320 GPCRs (Homo sapiens, UniProt P43119); format: cell-based
[15] = target: 320 GPCRs (Homo sapiens, UniProt P47211); format: cell-based
Sequence of 320 GPCRs (Homo sapiens, UniProt P47211) (P47211 whole entry): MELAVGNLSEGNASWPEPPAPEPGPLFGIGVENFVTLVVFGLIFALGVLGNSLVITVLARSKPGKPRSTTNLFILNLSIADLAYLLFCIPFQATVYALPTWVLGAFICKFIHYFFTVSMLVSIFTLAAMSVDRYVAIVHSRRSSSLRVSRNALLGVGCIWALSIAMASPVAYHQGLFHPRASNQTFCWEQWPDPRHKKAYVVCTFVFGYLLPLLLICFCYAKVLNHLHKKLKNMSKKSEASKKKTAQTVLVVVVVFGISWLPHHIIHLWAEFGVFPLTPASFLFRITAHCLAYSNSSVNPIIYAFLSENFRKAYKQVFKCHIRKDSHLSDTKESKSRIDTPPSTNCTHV

[16] = target: 320 GPCRs (Homo sapiens, UniProt P47901); format: cell-based
[17] = target: 320 GPCRs (Homo sapiens, UniProt P49238); format: cell-based
[18] = target: 320 GPCRs (Homo sapiens, UniProt P49685); format: cell-based
[19] = target: 320 GPCRs (Homo sapiens, UniProt P51685); format: cell-based
Sequence of 320 GPCRs (Homo sapiens, UniProt P51685) (P51685 whole entry): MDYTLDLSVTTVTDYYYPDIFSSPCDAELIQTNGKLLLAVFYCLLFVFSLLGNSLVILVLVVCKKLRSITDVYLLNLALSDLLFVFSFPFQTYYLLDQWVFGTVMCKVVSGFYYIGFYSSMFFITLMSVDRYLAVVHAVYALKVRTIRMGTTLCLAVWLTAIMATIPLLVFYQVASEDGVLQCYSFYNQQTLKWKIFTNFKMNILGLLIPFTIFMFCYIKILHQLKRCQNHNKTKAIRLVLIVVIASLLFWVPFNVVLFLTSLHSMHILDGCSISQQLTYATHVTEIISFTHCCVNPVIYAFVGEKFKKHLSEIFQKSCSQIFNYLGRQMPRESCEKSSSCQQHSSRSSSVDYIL

[20] = target: 320 GPCRs (Homo sapiens, UniProt Q13255); format: cell-based
[21] = target: 320 GPCRs (Homo sapiens, UniProt Q13258); format: cell-based
[22] = target: 320 GPCRs (Homo sapiens, UniProt Q13304); format: cell-based
Sequence of 320 GPCRs (Homo sapiens, UniProt Q13304) (Q13304 whole entry): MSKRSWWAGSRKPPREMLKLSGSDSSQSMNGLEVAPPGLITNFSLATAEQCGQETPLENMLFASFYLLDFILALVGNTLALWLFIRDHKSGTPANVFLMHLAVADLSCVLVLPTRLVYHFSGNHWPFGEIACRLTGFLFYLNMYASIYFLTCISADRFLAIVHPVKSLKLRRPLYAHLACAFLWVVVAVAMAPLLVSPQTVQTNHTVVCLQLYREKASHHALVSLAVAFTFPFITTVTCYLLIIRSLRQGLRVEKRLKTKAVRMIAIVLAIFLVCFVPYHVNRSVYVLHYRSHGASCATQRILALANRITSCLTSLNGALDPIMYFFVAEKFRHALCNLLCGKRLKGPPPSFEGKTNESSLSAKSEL

[23] = target: 320 GPCRs (Homo sapiens, UniProt Q7Z601); format: cell-based
[24] = target: 320 GPCRs (Homo sapiens, UniProt Q8NFJ6); format: cell-based
Sequence of 320 GPCRs (Homo sapiens, UniProt Q8NFJ6) (Q8NFJ6 whole entry): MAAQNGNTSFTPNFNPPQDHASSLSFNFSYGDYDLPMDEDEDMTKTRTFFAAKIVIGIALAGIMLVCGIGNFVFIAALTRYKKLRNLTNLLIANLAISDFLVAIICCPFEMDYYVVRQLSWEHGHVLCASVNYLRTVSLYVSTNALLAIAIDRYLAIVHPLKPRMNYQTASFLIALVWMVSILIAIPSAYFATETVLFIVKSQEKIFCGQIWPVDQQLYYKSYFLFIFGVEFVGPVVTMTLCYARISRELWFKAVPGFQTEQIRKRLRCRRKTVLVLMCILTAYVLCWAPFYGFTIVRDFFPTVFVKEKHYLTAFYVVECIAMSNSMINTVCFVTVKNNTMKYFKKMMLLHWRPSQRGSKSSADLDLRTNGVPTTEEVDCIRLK

[25] = target: 320 GPCRs (Homo sapiens, UniProt Q8TDS4); format: cell-based
[26] = target: 320 GPCRs (Homo sapiens, UniProt Q969N4); format: cell-based
[27] = target: 320 GPCRs (Homo sapiens, UniProt Q96G91); format: cell-based
[28] = target: 320 GPCRs (Homo sapiens, UniProt Q96RI0); format: cell-based
[29] = target: 320 GPCRs (Homo sapiens, UniProt Q96RI9); format: cell-based
[30] = target: 320 GPCRs (Homo sapiens, UniProt Q99677); format: cell-based
Sequence of 320 GPCRs (Homo sapiens, UniProt Q99677) (Q99677 whole entry): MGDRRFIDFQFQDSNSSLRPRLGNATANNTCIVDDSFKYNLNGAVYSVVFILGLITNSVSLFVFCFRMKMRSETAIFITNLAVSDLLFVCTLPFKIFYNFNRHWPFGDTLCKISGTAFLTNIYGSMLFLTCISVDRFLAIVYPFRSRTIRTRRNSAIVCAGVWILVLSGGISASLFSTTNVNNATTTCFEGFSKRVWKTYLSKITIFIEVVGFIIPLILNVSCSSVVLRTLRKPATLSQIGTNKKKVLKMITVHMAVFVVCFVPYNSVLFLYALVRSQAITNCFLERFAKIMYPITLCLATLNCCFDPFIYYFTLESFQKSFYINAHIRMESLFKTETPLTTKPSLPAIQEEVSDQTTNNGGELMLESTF

[31] = target: 320 GPCRs (Homo sapiens, UniProt Q99678); format: cell-based
Sequence of 320 GPCRs (Homo sapiens, UniProt Q99678) (Q99678 whole entry): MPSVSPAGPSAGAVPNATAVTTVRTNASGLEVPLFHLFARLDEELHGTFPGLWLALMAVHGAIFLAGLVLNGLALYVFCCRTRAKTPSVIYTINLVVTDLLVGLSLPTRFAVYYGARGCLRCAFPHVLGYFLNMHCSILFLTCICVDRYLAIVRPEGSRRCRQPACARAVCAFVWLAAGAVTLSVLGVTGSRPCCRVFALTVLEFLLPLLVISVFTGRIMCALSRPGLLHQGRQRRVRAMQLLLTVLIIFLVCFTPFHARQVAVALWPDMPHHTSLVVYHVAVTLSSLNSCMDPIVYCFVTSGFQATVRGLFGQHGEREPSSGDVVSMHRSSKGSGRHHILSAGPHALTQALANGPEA

[32] = target: 320 GPCRs (Homo sapiens, UniProt Q9BZJ7); format: cell-based
Sequence of 320 GPCRs (Homo sapiens, UniProt Q9BZJ7) (Q9BZJ7 whole entry): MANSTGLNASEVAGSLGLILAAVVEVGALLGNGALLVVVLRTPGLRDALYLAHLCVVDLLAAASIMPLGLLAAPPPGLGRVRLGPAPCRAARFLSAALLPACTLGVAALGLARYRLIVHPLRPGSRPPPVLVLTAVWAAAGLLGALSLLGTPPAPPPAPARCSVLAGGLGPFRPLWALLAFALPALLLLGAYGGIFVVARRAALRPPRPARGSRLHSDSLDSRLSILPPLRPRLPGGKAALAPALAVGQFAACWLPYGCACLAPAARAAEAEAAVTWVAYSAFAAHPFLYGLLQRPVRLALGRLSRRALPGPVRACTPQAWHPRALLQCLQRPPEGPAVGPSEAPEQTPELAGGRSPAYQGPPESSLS

[33] = target: 320 GPCRs (Homo sapiens, UniProt Q9H1C0); format: cell-based
[34] = target: 320 GPCRs (Homo sapiens, UniProt Q9NPC1); format: cell-based
[35] = target: 320 GPCRs (Homo sapiens, UniProt Q9Y653); format: cell-based
[36] = tested on: 320 GPCRs; format: cell-based
[37] = target: T1, COX-2 (Homo sapiens, UniProt P35354); experiment: COX-2 inhibition (Eurofins item 4186); format: biochemical
T1 construct: purchased Eurofins item 4186
T1 sequence (P35354 18-604): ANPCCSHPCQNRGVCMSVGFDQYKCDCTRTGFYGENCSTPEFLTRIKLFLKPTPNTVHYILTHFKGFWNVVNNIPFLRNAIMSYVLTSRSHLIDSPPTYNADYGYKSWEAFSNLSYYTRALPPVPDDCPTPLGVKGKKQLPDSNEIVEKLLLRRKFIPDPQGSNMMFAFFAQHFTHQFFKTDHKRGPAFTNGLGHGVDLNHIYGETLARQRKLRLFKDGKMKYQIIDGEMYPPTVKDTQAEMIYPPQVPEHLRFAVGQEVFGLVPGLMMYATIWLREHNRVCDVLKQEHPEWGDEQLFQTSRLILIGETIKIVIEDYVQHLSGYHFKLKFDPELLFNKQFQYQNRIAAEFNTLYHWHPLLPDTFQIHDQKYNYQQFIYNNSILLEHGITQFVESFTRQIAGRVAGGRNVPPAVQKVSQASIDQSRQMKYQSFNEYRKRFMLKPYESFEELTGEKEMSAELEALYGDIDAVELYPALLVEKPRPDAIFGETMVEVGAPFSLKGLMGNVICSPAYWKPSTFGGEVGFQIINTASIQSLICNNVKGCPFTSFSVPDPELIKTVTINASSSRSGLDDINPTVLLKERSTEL
Excerpt: . […] This panel includes several adverse drug reaction receptors such as the serotonin receptor 5HT2b, M1 and M2 muscarinic receptors and adrenergic receptors. […]. page 7:
Supplementary Figure 7: Non-GPCR off-target screening for 74. a)-e) Dose-response curves of 74 at […]
proliferator-activated receptor gamma (PPARγ, Eurofins item G124). Data in a)-e) and g)-i) represent two technical replicates. Source data are provided as a Source Data file.
(1 picture or pasted object on this page, not shown here)

[38] = target: AURKA (Homo sapiens, UniProt O14965); experiment: biochemical; format: binding; conditions: 10000 nM; read-out: Percent Control
[39] = target: BRAF(V600E) (Homo sapiens, UniProt P15056, V600E); experiment: biochemical; format: binding; conditions: 10000 nM; read-out: Percent Control

O=C(O)C1CCC2(CC1)CC(Nc1ncnc3[nH]c4c(F)cccc4c13)C2 (stereo not drawn) [Compound 74, OC(=O)C1CCC2(CC(C2)NC=3N=CN=C4NC=5C(F)=CC=CC5C34)CC1]
IC50 [1]: 78.9 nM | mode of antagonism by Schild analysis [1]: competitive antagonism | Ki ([1]; calculated using the Cheng Prusoff equation, read-out: Arrestin-BRET Ki*): 15.6 nM | RLU (Fold over Basal) [2]: 2 Fold over Basal and 1.8 Fold over Basal and 3 Fold over Basal and 2.4 Fold over Basal | RLU (Fold over Basal) [3]: 2.1 Fold over Basal and 1.6 Fold over Basal and 1.9 Fold over Basal and 2.4 Fold over Basal | RLU (Fold over Basal) [4]: 1.3 Fold over Basal and 0.9 Fold over Basal and 1.4 Fold over Basal and 0.8 Fold over Basal | RLU (Fold over Basal) [5]: 0.6 Fold over Basal and 0.5 Fold over Basal | RLU (Fold over Basal) [6]: 1 Fold over Basal and 1.6 Fold over Basal and 1.5 Fold over Basal | RLU (Fold over Basal) [7]: 1.7 Fold over Basal and 1.8 Fold over Basal and 1.4 Fold over Basal | RLU (Fold over Basal) [8]: 1 Fold over Basal and 0.6 Fold over Basal | RLU (Fold over Basal) [9]: 1.2 Fold over Basal and 0.6 Fold over Basal and 0.8 Fold over Basal and 0.9 Fold over Basal | RLU (Fold over Basal) [10]: 1.2 Fold over Basal and 1.5 Fold over Basal and 1.6 Fold over Basal and 0.9 Fold over Basal | RLU (Fold over Basal) [11]: 2.1 Fold over Basal and 1.3 Fold over Basal and 1.7 Fold over Basal and 1.5 Fold over Basal | RLU (Fold over Basal) [12]: 0.7 Fold over Basal and 1 Fold over Basal and 0.9 Fold over Basal and 0.6 Fold over Basal | RLU (Fold over Basal) [13]: 0.8 Fold over Basal and 0.7 Fold over Basal and 1.3 Fold over Basal and 0.9 Fold over Basal | RLU (Fold over Basal) [14]: 0.9 Fold over Basal and 0.6 Fold over Basal and 0.7 Fold over Basal and 1 Fold over Basal | RLU (Fold over Basal) [15]: 0.8 Fold over Basal and 0.7 Fold over Basal and 0.9 Fold over Basal and 0.6 Fold over Basal | RLU (Fold over Basal) [16]: 0.9 Fold over Basal and 1 Fold over Basal and 0.5 Fold over Basal | RLU (Fold over Basal) [17]: 1 Fold over Basal | RLU (Fold over Basal) [18]: 0.4 Fold over Basal and 0.5 Fold over Basal and 0.6 Fold over Basal and 0.7 Fold over Basal | RLU (Fold over Basal) [19]: 1.6 Fold over Basal and 1.2 Fold over Basal and 0.8 Fold over Basal and 1.5 Fold over Basal | RLU (Fold over Basal) [20]: 0.9 Fold over Basal and 1.1 Fold over Basal and 0.8 Fold over Basal | RLU (Fold over Basal) [21]: 0.7 Fold over Basal and 1 Fold over Basal and 1.1 Fold over Basal | RLU (Fold over Basal) [22]: 0.4 Fold over Basal and 0.6 Fold over Basal and 0.5 Fold over Basal | RLU (Fold over Basal) [23]: 0.6 Fold over Basal and 1 Fold over Basal | RLU (Fold over Basal) [24]: 0.7 Fold over Basal and 1.4 Fold over Basal and 1.3 Fold over Basal and 1.1 Fold over Basal | RLU (Fold over Basal) [25]: 1.1 Fold over Basal and 1.6 Fold over Basal and 1.9 Fold over Basal and 1.5 Fold over Basal | RLU (Fold over Basal) [26]: 0.7 Fold over Basal and 0.5 Fold over Basal | RLU (Fold over Basal) [27]: 1 Fold over Basal and 0.7 Fold over Basal and 1.1 Fold over Basal and 1.4 Fold over Basal | RLU (Fold over Basal) [28]: 1 Fold over Basal and 0.7 Fold over Basal and 1.2 Fold over Basal | RLU (Fold over Basal) [29]: 0.9 Fold over Basal and 1.1 Fold over Basal and 1.2 Fold over Basal | RLU (Fold over Basal) [30]: 0.9 Fold over Basal and 0.7 Fold over Basal and 0.8 Fold over Basal | RLU (Fold over Basal) [31]: 0.9 Fold over Basal and 1.6 Fold over Basal and 0.8 Fold over Basal | RLU (Fold over Basal) [32]: 0.6 Fold over Basal and 0.5 Fold over Basal and 0.8 Fold over Basal | RLU (Fold over Basal) [33]: 0.9 Fold over Basal and 0.8 Fold over Basal and 1.3 Fold over Basal | RLU (Fold over Basal) [34]: 0.9 Fold over Basal and 1.5 Fold over Basal and 0.8 Fold over Basal and 1.3 Fold over Basal | RLU (Fold over Basal) [35]: 0.9 Fold over Basal and 0.7 Fold over Basal and 0.8 Fold over Basal | agonist activity in GPCR panel [36]: no agonist activity | inhibitory / off-target activity at COX-2 ([37]; 3 µM): no off-target activity; also recorded: no inhibitory activity | %Inhibition of Control Values ([37]; COX-2, 3 µM, technical replicates): -20.9% and -2.6% | remaining activity at 10 µM [38]: 22% | remaining activity at 10 µM [39]: 84%
